Laboratory results reported in US20070128217A1 (priority 2003, published 2007).

Experiments:
[1] = tested on: antibodies in sera from SARS patients (sera 1a, 1b, 2, 6, 37, 62, London, SARS-yellow, SARS-green); format: binding, human
[2] = tested on: control sera (pooled serum of ten healthy LUMC hospital workers; commercial negative donor pooled serum from the Dutch bloodbank); format: binding, human
[3] = tested on: rabbit serum obtained by immunizing a rabbit with the SARS-CoV strain Frankfurt 1; format: binding; design: Binding of a rabbit serum to linear peptides / Binding of a rabbit serum to looped peptides / Rabbit serum linear peptides / Rabbit serum looped peptides / Binding of a rabbit serum to linear peptides of protein N of SARS-CoV Urbani (Rabbit serum linear peptides) / Binding of a rabbit serum to looped/cyclic peptides of protein N of SARS-CoV Urbani (Rabbit serum looped peptides): unit not given here

Row | Sequence | Binding of serum 1a to linear peptides of protein E of SARS-CoV Urbani [1] | Binding of serum 1a to looped/cyclic peptides of protein E of SARS-CoV Urbani [1] | Binding of serum 1b to linear peptides of protein E of SARS-CoV Urbani [1] | Binding of serum 1b to looped/cyclic peptides of protein E of SARS-CoV Urbani [1] | Binding of serum 2 to linear peptides of protein E of SARS-CoV Urbani [1] | Binding of serum 2 to looped/cyclic peptides of protein E of SARS-CoV Urbani [1] | Binding of serum 6 to linear peptides of protein E of SARS-CoV Urbani [1] | Binding of serum 6 to looped/cyclic peptides of protein E of SARS-CoV Urbani [1] | Binding of serum 37 to linear peptides of protein E of SARS-CoV Urbani [1] | Binding of serum 37 to looped/cyclic peptides of protein E of SARS-CoV Urbani [1] | Binding of serum 62 to linear peptides of protein E of SARS-CoV Urbani [1] | Binding of serum 62 to looped/cyclic peptides of protein E of SARS-CoV Urbani [1] | Binding of serum London to linear peptides of protein E of SARS-CoV Urbani [1] | Binding of serum London to looped/cyclic peptides of protein E of SARS-CoV Urbani [1] | Binding of serum SARS-green to linear peptides of protein E of SARS-CoV Urbani [1] | Binding of serum SARS-green to looped/cyclic peptides of protein E of SARS-CoV Urbani [1] | Binding of serum SARS-yellow to linear peptides of protein E of SARS-CoV Urbani [1] | Binding of serum SARS-yellow to looped/cyclic peptides of protein E of SARS-CoV Urbani [1] | Binding of Control Serum Blood-Bank to Looped peptides [2] | Binding of Control serum Blood-bank to linear peptides [2] | other results
1 | LAILTALRLCAYCCN | 0.8 | 0.8 | 0.7 | 0.4 | 0.5 | 0.6 | 0.5 | 0.5 | 0.8 | 0.6 | 0.8 | 0.7 | 0.5 | 0.4 | 0.5 | 0.5 | 0.2 | 0.8 | 0.7 | 0.7 | Binding of Control serum LUMC to linear peptides [2]: 0.6; Binding of Control serum LUMC to looped peptides [2]: 0.8; Binding of a rabbit serum to linear peptides [3]: 0.6; Binding of a rabbit serum to looped peptides [3]: 0.6
2 | FLLVTLAILTALRLC | 0.6 | 0.3 | 0.5 | 0.0 | 0.6 | 0.5 | 0.3 | 1 | 0.3 | 0.6 | 0.3 | 0.6 | 0.6 | 1.2 | 0.5 | 0.3 | 0.2 | 0.5 | 0.5 | 0.6 | Binding of Control serum LUMC to linear peptides [2]: 0.5; Binding of Control serum LUMC to looped peptides [2]: 0.1; Binding of a rabbit serum to linear peptides [3]: 0.1; Binding of a rabbit serum to looped peptides [3]: 0.0
